Key:
Assay type in all cases: in vivo
Settings in all cases: after 13 d
[1] = test system: corn (Zea mays, ZEAMX); experiment: Test A pre-emergence, corn
Protocol: (§1) Seeds of corn (Zea mays, ZEAMX), giant foxtail (Setaria faberi, SETFA), barnyardgrass (Echinochloa crus-galli, ECHCG), ivy-leaved morning glory (Ipomoea hederacea, IPOHE), redroot pigweed (Amaranthus retroflexus, AMARE) and velvetleaf (Abutilon theophrasti, ABUTH) were sown in standard soil in pots. After cultivation for one day under controlled conditions in a glasshouse (at 24/16° C., day/night; 14 h light; 65% humidity), the plants were sprayed with an aqueous spray solution derived from the formulation of the technical active ingredient in acetone/water (50:50) solution containing 0.5% Tween 20 (polyoxyethylene sorbitan monolaurate, CAS RN 9005-64-5) to give a final dose of 15.625, 62.5 or 250 g/ha of test compound.
(§2) The test plants were then grown under controlled conditions in a glasshouse (at 24/16° C., day/night; 14 h light; 65% humidity) and watered twice daily. After 13 d the test was evaluated (100=total damage to plant; 0=no damage to plant).

[2] = test system: giant foxtail (Setaria faberi, SETFA); experiment: Test A pre-emergence, giant foxtail
Protocol: as §1, §2

[3] = test system: redroot pigweed (Amaranthus retroflexus, AMARE); experiment: Test A pre-emergence, redroot pigweed
Protocol: as §1, §2

[4] = test system: velvetleaf (Abutilon theophrasti, ABUTH); experiment: Test A post-emergence, velvetleaf
Protocol: as §1, with “IPOHE)),” for “IPOHE),”, “8 d” for “one day”
(§3) The test plants were then grown on under controlled conditions in a glasshouse (at 24/16° C., day/night; 14 h light; 65% humidity) and watered twice daily. After 13 d the test was evaluated (100=total damage to plant; 0=no damage to plant).

[5] = test system: corn (Zea mays, ZEAMX); experiment: Test A post-emergence, corn
Protocol: as §1, with “IPOHE)),” for “IPOHE),”, “8 d” for “one day”
as §3

[6] = test system: ivy-leaved morning glory (Ipomoea hederacea, IPOHE); experiment: Test A post-emergence, ivy-leaved morning glory
Protocol: as §1, with “IPOHE)),” for “IPOHE),”, “8 d” for “one day”
as §3

[7] = test system: redroot pigweed (Amaranthus retroflexus, AMARE); experiment: Test A post-emergence, redroot pigweed
Protocol: as §1, with “IPOHE)),” for “IPOHE),”, “8 d” for “one day”
as §3

[8] = test system: barnyardgrass (Echinochloa crus-galli, ECHCG); experiment: Test A post-emergence, barnyardgrass
Protocol: as §1, with “IPOHE)),” for “IPOHE),”, “8 d” for “one day”
as §3

[9] = test system: ivy-leaved morning glory (Ipomoea hederacea, IPOHE); experiment: Test A pre-emergence, ivy-leaved morning glory
Protocol: as §1, §2

[10] = test system: velvetleaf (Abutilon theophrasti, ABUTH); experiment: Test A pre-emergence, velvetleaf
Protocol: as §1, §2

[11] = test system: giant foxtail (Setaria faberi, SETFA); experiment: Test A post-emergence, giant foxtail
Protocol: as §1, with “IPOHE)),” for “IPOHE),”, “8 d” for “one day”
as §3

[12] = test system: barnyardgrass (Echinochloa crus-galli, ECHCG); experiment: Test A pre-emergence, barnyardgrass
Protocol: as §1, §2

Structure (SMILES) | damage to plant (100=total damage; 0=no damage) ZEAMX ([1]; Pre-Emergence at 15.625 g/ha) | damage to plant (100=total damage; 0=no damage) ZEAMX ([1]; Pre-Emergence at 62.5 g/ha) | damage to plant (100=total damage; 0=no damage) ZEAMX ([1]; Pre-Emergence at 250 g/ha) | damage to plant (100=total damage; 0=no damage) SETFA ([2]; Pre-Emergence at 15.625 g/ha) | damage to plant (100=total damage; 0=no damage) SETFA ([2]; Pre-Emergence at 62.5 g/ha) | damage to plant (100=total damage; 0=no damage) SETFA ([2]; Pre-Emergence at 250 g/ha) | damage to plant (100=total damage; 0=no damage) AMARE ([3]; Pre-Emergence at 15.625 g/ha) | damage to plant (100=total damage; 0=no damage) AMARE ([3]; Pre-Emergence at 62.5 g/ha) | damage to plant (100=total damage; 0=no damage) AMARE ([3]; Pre-Emergence at 250 g/ha) | damage to plant (100=total damage; 0=no damage) ABUTH ([4]; Post-Emergence at 15.625 g/ha) | damage to plant (100=total damage; 0=no damage) ABUTH ([4]; Post-Emergence at 62.5 g/ha) | damage to plant (100=total damage; 0=no damage) ABUTH ([4]; Post-Emergence at 250 g/ha) | damage to plant (100=total damage; 0=no damage) ZEAMX ([5]; Post-Emergence at 15.625 g/ha) | damage to plant (100=total damage; 0=no damage) ZEAMX ([5]; Post-Emergence at 62.5 g/ha) | damage to plant (100=total damage; 0=no damage) ZEAMX ([5]; Post-Emergence at 250 g/ha) | damage to plant (100=total damage; 0=no damage) IPOHE ([6]; Post-Emergence at 15.625 g/ha) | damage to plant (100=total damage; 0=no damage) IPOHE ([6]; Post-Emergence at 62.5 g/ha) | damage to plant (100=total damage; 0=no damage) IPOHE ([6]; Post-Emergence at 250 g/ha) | damage to plant (100=total damage; 0=no damage) AMARE ([7]; Post-Emergence at 15.625 g/ha) | damage to plant (100=total damage; 0=no damage) AMARE ([7]; Post-Emergence at 62.5 g/ha) | further results
CN1CC(c2cc(Cl)n(C)n2)C(C(=O)Nc2cccc(F)c2F)C1=O (racemic) [Compound 27] | 0 | 10 | 10 | 60 | 80 | 90 | 0 | 0 | 0 | 0 | 0 | 0 | 0 | 0 | 10 | 10 | 10 | 20 | 30 | 40 | damage to plant (100=total damage; 0=no damage) AMARE ([7]; Post-Emergence at 250 g/ha): 30; damage to plant (100=total damage; 0=no damage) ECHCG ([8]; Post-Emergence at 15.625 g/ha): 20; damage to plant (100=total damage; 0=no damage) ECHCG ([8]; Post-Emergence at 62.5 g/ha): 50; damage to plant (100=total damage; 0=no damage) ECHCG ([8]; Post-Emergence at 250 g/ha): 70; damage to plant (100=total damage; 0=no damage) IPOHE ([9]; Pre-Emergence at 15.625 g/ha): 0; damage to plant (100=total damage; 0=no damage) IPOHE ([9]; Pre-Emergence at 62.5 g/ha): 0; damage to plant (100=total damage; 0=no damage) IPOHE ([9]; Pre-Emergence at 250 g/ha): 10; damage to plant (100=total damage; 0=no damage) ABUTH ([10]; Pre-Emergence at 15.625 g/ha): 0; damage to plant (100=total damage; 0=no damage) ABUTH ([10]; Pre-Emergence at 62.5 g/ha): 0; damage to plant (100=total damage; 0=no damage) ABUTH ([10]; Pre-Emergence at 250 g/ha): 0; damage to plant (100=total damage; 0=no damage) SETFA ([11]; Post-Emergence at 15.625 g/ha): 10; damage to plant (100=total damage; 0=no damage) SETFA ([11]; Post-Emergence at 62.5 g/ha): 50; damage to plant (100=total damage; 0=no damage) SETFA ([11]; Post-Emergence at 250 g/ha): 70; damage to plant (100=total damage; 0=no damage) ECHCG ([12]; Pre-Emergence at 15.625 g/ha): 70; damage to plant (100=total damage; 0=no damage) ECHCG ([12]; Pre-Emergence at 62.5 g/ha): 90; damage to plant (100=total damage; 0=no damage) ECHCG ([12]; Pre-Emergence at 250 g/ha): 90
CN1CC(c2cc(C(F)(F)F)n(C)n2)C(C(=O)Nc2cccc(F)c2OC(F)F)C1=O (racemic) [Compound 23] | 10 | 20 | 40 | 70 | 90 | 90 | 0 | 0 | 0 | 0 | 0 | 0 | 0 | 20 | 80 | 0 | 10 | 30 | 0 | 0 | damage to plant (100=total damage; 0=no damage) AMARE ([7]; Post-Emergence at 250 g/ha): 0; damage to plant (100=total damage; 0=no damage) ECHCG ([8]; Post-Emergence at 15.625 g/ha): 50; damage to plant (100=total damage; 0=no damage) ECHCG ([8]; Post-Emergence at 62.5 g/ha): 80; damage to plant (100=total damage; 0=no damage) ECHCG ([8]; Post-Emergence at 250 g/ha): 80; damage to plant (100=total damage; 0=no damage) IPOHE ([9]; Pre-Emergence at 15.625 g/ha): 0; damage to plant (100=total damage; 0=no damage) IPOHE ([9]; Pre-Emergence at 62.5 g/ha): 10; damage to plant (100=total damage; 0=no damage) IPOHE ([9]; Pre-Emergence at 250 g/ha): 20; damage to plant (100=total damage; 0=no damage) ABUTH ([10]; Pre-Emergence at 15.625 g/ha): 0; damage to plant (100=total damage; 0=no damage) ABUTH ([10]; Pre-Emergence at 62.5 g/ha): 0; damage to plant (100=total damage; 0=no damage) ABUTH ([10]; Pre-Emergence at 250 g/ha): 0; damage to plant (100=total damage; 0=no damage) SETFA ([11]; Post-Emergence at 15.625 g/ha): 60; damage to plant (100=total damage; 0=no damage) SETFA ([11]; Post-Emergence at 62.5 g/ha): 80; damage to plant (100=total damage; 0=no damage) SETFA ([11]; Post-Emergence at 250 g/ha): 80; damage to plant (100=total damage; 0=no damage) ECHCG ([12]; Pre-Emergence at 15.625 g/ha): 70; damage to plant (100=total damage; 0=no damage) ECHCG ([12]; Pre-Emergence at 62.5 g/ha): 90; damage to plant (100=total damage; 0=no damage) ECHCG ([12]; Pre-Emergence at 250 g/ha): 90
CN1CC(c2nn(C)c(Cl)c2Br)C(C(=O)Nc2cccc(F)c2F)C1=O (racemic) [Compound 28] | 0 | 0 | 0 | 20 | 80 | 90 | 0 | 0 | 0 | 0 | 0 | 0 | 0 | 0 | 0 | 0 | 0 | 0 | 30 | 40 | damage to plant (100=total damage; 0=no damage) AMARE ([7]; Post-Emergence at 250 g/ha): 50; damage to plant (100=total damage; 0=no damage) ECHCG ([8]; Post-Emergence at 15.625 g/ha): 30; damage to plant (100=total damage; 0=no damage) ECHCG ([8]; Post-Emergence at 62.5 g/ha): 50; damage to plant (100=total damage; 0=no damage) ECHCG ([8]; Post-Emergence at 250 g/ha): 70; damage to plant (100=total damage; 0=no damage) IPOHE ([9]; Pre-Emergence at 15.625 g/ha): 0; damage to plant (100=total damage; 0=no damage) IPOHE ([9]; Pre-Emergence at 62.5 g/ha): 0; damage to plant (100=total damage; 0=no damage) IPOHE ([9]; Pre-Emergence at 250 g/ha): 0; damage to plant (100=total damage; 0=no damage) ABUTH ([10]; Pre-Emergence at 15.625 g/ha): 0; damage to plant (100=total damage; 0=no damage) ABUTH ([10]; Pre-Emergence at 62.5 g/ha): 0; damage to plant (100=total damage; 0=no damage) ABUTH ([10]; Pre-Emergence at 250 g/ha): 0; damage to plant (100=total damage; 0=no damage) SETFA ([11]; Post-Emergence at 15.625 g/ha): 10; damage to plant (100=total damage; 0=no damage) SETFA ([11]; Post-Emergence at 62.5 g/ha): 30; damage to plant (100=total damage; 0=no damage) SETFA ([11]; Post-Emergence at 250 g/ha): 70; damage to plant (100=total damage; 0=no damage) ECHCG ([12]; Pre-Emergence at 15.625 g/ha): 30; damage to plant (100=total damage; 0=no damage) ECHCG ([12]; Pre-Emergence at 62.5 g/ha): 70; damage to plant (100=total damage; 0=no damage) ECHCG ([12]; Pre-Emergence at 250 g/ha): 90
